Measured values from ChEMBL document CHEMBL1201862, “PubChem BioAssay data set” (2004).
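These data come from cells grown in 96-well plates and exposed to compound for 48 hours at five concentrations. Here, GI50 denotes the concentration required for 50% inhibition of growth.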 The source made the active and inactive calls. Cut-off read from the data, not from the text of the source: active = GI50 up to about 1.1 µM and inactive = higher.

Assays:
Assay in all cases: DTP human tumour cell line panel, 48 h
DMS-273 = system: DMS-273
LXFL 529 = system: LXFL 529
M19-MEL = system: M19-MEL
SNB-78 = system: SNB-78
DLD-1 = system: DLD-1
DMS-114 = system: DMS-114
HOP-18 = system: HOP-18
KM-20L2 = system: KM-20L2
RXF 631 = system: RXF 631

Row | SMILES | GI50 (DMS-273) | GI50 (LXFL 529) | GI50 (M19-MEL) | GI50 (SNB-78) | GI50 (DLD-1) | GI50 (DMS-114) | GI50 (HOP-18) | GI50 (KM-20L2) | GI50 (RXF 631)
1 | COc1cc(C2c3cc4c(cc3[C@@H](Nc3ccc(C(=O)O)cc3)C3COC(=O)[C@H]23)OCO4)cc(OC)c1O (stereo not given in full) | 7.16 µM (inactive) | 11 µM (inactive) | 15.7 µM (inactive) | 10.7 µM (inactive) |  |  |  |  | 
2 | O=C(/C=C/C1C(=O)NC(=O)NC1=O)CC(=O)C(=O)Nc1cc(Cl)c(Cl)cc1Cl | > 100 µM (inactive) | > 100 µM (inactive) | > 100 µM (inactive) | > 100 µM (inactive) | > 100 µM (inactive) | > 100 µM (inactive) | > 100 µM (inactive) | > 100 µM (inactive) | 
3 | C=CCC12CC(=O)CCC1CC(=O)C2 (stereo not given) | > 100 µM (inactive) | > 100 µM (inactive) | > 100 µM (inactive) | > 100 µM (inactive) | > 100 µM (inactive) | > 100 µM (inactive) | > 100 µM (inactive) | > 100 µM (inactive) | 
4 | CN1C(=O)CN2C(Cl)(Cl)C2(c2ccccc2F)c2cc([N+](=O)[O-])ccc21 (stereo not given) | 39.4 µM (inactive) | 58.1 µM (inactive) | 65.6 µM (inactive) |  | 35.1 µM (inactive) | 42.8 µM (inactive) |  | 26.7 µM (inactive) | 
5 | CCC(=O)O[C@@H]1C2C(OC(C)=O)C34COC(C)([C@@H]3C3C(C[C@]3(C)OC(C)=O)[C@@H](OC(=O)c3ccccc3)C4=O)[C@H](OC(C)=O)[C@@]2(OC(C)=O)C[C@@H]1C (stereo not given in full) | 44.1 µM (inactive) | 34.9 µM (inactive) | 32.8 µM (inactive) | 5.5 µM (inactive) | > 100 µM (inactive) | 23.3 µM (inactive) | > 100 µM (inactive) | > 100 µM (inactive) | 86.1 µM (inactive)
6 | CON(C)C(=O)CCCO |  | > 100 µM (inactive) | > 100 µM (inactive) |  | > 100 µM (inactive) | > 100 µM (inactive) | > 100 µM (inactive) | > 100 µM (inactive) | > 100 µM (inactive)
7 | CC1(O)C=CC2CCC1C2O (stereo not given) | 55.6 µM (inactive) | 78.9 µM (inactive) | > 100 µM (inactive) | > 100 µM (inactive) | 58.7 µM (inactive) | 17.7 µM (inactive) | > 100 µM (inactive) | 50.9 µM (inactive) | 
8 | CC(C)N(C(=O)C12C3C4C1C1C4(C#N)C3C12C#N)C(C)C (stereo not given) |  | > 100 µM (inactive) | > 100 µM (inactive) | > 100 µM (inactive) | > 100 µM (inactive) | > 100 µM (inactive) | > 100 µM (inactive) | > 100 µM (inactive) | > 100 µM (inactive)
9 | CCNC1=Nc2ccccc2-n2c(nn3nc4ccccc4c23)N1CC | > 100 µM (inactive) | > 100 µM (inactive) | > 100 µM (inactive) |  | > 100 µM (inactive) | 89.3 µM (inactive) | > 100 µM (inactive) | > 100 µM (inactive) | 
10 | O=C(O)CNS(=O)(=O)c1ccc(NC(=O)c2ccc([N+](=O)[O-])cc2)cc1 | > 100 µM (inactive) | > 100 µM (inactive) | > 100 µM (inactive) |  | > 100 µM (inactive) |  | > 100 µM (inactive) | > 100 µM (inactive) | > 100 µM (inactive)
11 | O=[N+]([O-])c1ccc(C2SCc3nc4ccccc4n32)cc1 (stereo not given) | 54.1 µM (inactive) | 43.4 µM (inactive) | 81.8 µM (inactive) | > 100 µM (inactive) | 89.7 µM (inactive) | 35.1 µM (inactive) | 88.3 µM (inactive) | > 100 µM (inactive) | > 100 µM (inactive)
12 | C[C@@H]1CC2(C[C@@H](C)C3[C@@H](CC4(C)CCCC5C6=CC(O)(CC[C@]34C)OC6=CC(=O)OC5(C)C)O2)OC1=O (stereo not given in full) | > 100 µM (inactive) | > 100 µM (inactive) |  |  | > 100 µM (inactive) | > 100 µM (inactive) | > 100 µM (inactive) |  | 
13 | OCC1O[C@H](O[C@@H]2CCCN3CC(O)C(O)[C@@H]23)C(O)C(O)C1O (stereo not given in full) | > 100 µM (inactive) | > 100 µM (inactive) | > 100 µM (inactive) | > 100 µM (inactive) | > 100 µM (inactive) |  | > 100 µM (inactive) | > 100 µM (inactive) | > 100 µM (inactive)
14 | CC1OC(OCC2OC(Oc3c(-c4ccc(O)cc4)oc4cc(O)cc(O)c4c3=O)C(OC3OC(C)C(O)C(O)C3O)C(O)C2O)C(O)C(O)C1O (stereo not given) | > 84.1 µM (inactive) | > 100 µM (inactive) | > 72.4 µM (inactive) | > 100 µM (inactive) | > 100 µM (inactive) | > 53.7 µM (inactive) | > 100 µM (inactive) | > 100 µM (inactive) | > 100 µM (inactive)
15 | C[C@H](NC(=O)OC1C2C=CC(O)C1CC2)c1ccccc1 (stereo not given in full) | 24.4 µM (inactive) | > 100 µM (inactive) |  | > 100 µM (inactive) | 89.1 µM (inactive) | 60.8 µM (inactive) | > 100 µM (inactive) | 45.3 µM (inactive) | 
16 | O=NN(CCCl)C(=O)N[C@H]1CC[C@@H](CC(=O)O)CC1 | > 100 µM (inactive) |  | > 100 µM (inactive) | > 100 µM (inactive) | > 100 µM (inactive) | > 100 µM (inactive) | > 100 µM (inactive) | > 100 µM (inactive) | 
17 | COc1ccc(C2S/C(=C\c3ccc(O)cc3)C(=O)N2NC(=O)Cc2ccccc2)cc1 (stereo not given) | > 100 µM (inactive) | > 100 µM (inactive) | > 100 µM (inactive) |  | > 100 µM (inactive) | > 100 µM (inactive) | > 100 µM (inactive) |  | 
18 | CCN1C(C)=NC2C(=O)c3ccccc3C(=O)C21 (stereo not given) | 48.6 µM (inactive) | 94.4 µM (inactive) | 34.8 µM (inactive) |  |  | 32.2 µM (inactive) |  | 27.2 µM (inactive) | > 100 µM (inactive)
19 | CC(=O)N/C(=C\c1ccccc1/C=C(\NC(C)=O)c1nc2cc(C)c(C)cc2[nH]1)c1nc2cc(C)c(C)cc2[nH]1 | 2.56 µM (inactive) | 17.1 µM (inactive) | 10.7 µM (inactive) | 10.7 µM (inactive) | 19.2 µM (inactive) | 0.23 µM (active) |  | 29.4 µM (inactive) | 
20 | O=C(c1ccccc1)c1ccc2cccc(OC3OC(CO)C(O)C(O)C3O)c2n1 (stereo not given) | > 100 µM (inactive) | > 100 µM (inactive) |  | > 100 µM (inactive) | > 100 µM (inactive) | > 100 µM (inactive) | > 100 µM (inactive) | > 100 µM (inactive) | 
21 | CC(/C=C/c1ncccc1OCCCCCC(=O)O)=N\NC1=NCCN1 | > 100 µM (inactive) | > 100 µM (inactive) | > 100 µM (inactive) |  | > 100 µM (inactive) | > 100 µM (inactive) |  | > 100 µM (inactive) | 
22 | CCOC(=O)C1=C(C)N(NC(=O)OC)C2(N)N(NC(=O)OC)C(C)=C(C(=O)OCC)C12C#N (stereo not given) | > 100 µM (inactive) | > 100 µM (inactive) | > 100 µM (inactive) |  | > 100 µM (inactive) | > 100 µM (inactive) |  | > 100 µM (inactive) | 
